From patent US4513007A, “Method for treating heart disease” (priority 1983, dated 1985)

What was measured:
cardiac lymphatics = experiment: post-mortem cardiac lymphangiography in normal dog hearts (first study); assay type: in vivo, mongrel dogs; details: normal myocardium, 6 h after i.v., Hyaluronidase 500 I.U./kg, calcium dobesilate 50-100 mg/kg
Method: I. In a first study the effect of calcium dobesilate was compared to Hyaluronidase on the visualization of cardiac lymphatics in normal dog hearts (not infarcted). 18 healthy mongrel dogs of either gender were divided into 3 groups each of 6 animals. […] The dogs in the second group received an intravenous injection of Hyaluronidase (500 I.U./kg) and those of the third group received an i.v. injection of calcium dobesilate (50-100 mg/kg). Post-mortem cardiac lymphangiography was performed after killing the animals and extracting the hearts 6 hours after the administration of either product. The results of the 2 groups were compared to that of the controls. The technique of cardiac lymphangiography used was that described by Szlavy L., Adams D., Hollenberg N. K. and Abrams H., published in the American Heart Journal, Vol. 100, Nr. 3, pp 323-331, Sept. 1980 (8). The technique consisted in injecting a contrast agent (30 g barium sulphate+2-5 ml of Iodamid 420) into the superficial lymphatic vessels of the heart using a Becton-Dickinson lymphangiography set. The contrast agent was injected under gentle manual pressure until the lymphatic vessels in the left ventricle were filled (multiple injections starting from the apex to the base of the heart). The heart was then X-rayed with 5-fold magnification using a 0,1 mm focal spot X-raytube and with exposure factors of 50 KV, 0,01 second and 30 mA. With this technique it was possible to visualize the 40-80 microns lymphatic vessels. A grid was applied on the lymphangiograms which consisted of lines drawn at right angles, 1 cm apart. Each 5×5 cm^2 served as a single unit as it corresponded to 1 cm^2 of the left ventricular myocardium (5-fold magnification was used for filming). A point was counted whenever a crossing coincided with a visualized lymph vessel in the lymphangiogram. In this way a quantitative index was obtained based on the number of lymph vessels/cm^2 or to the percent of the left ventricular surface area.

[1] = test system: dogs with coronary occlusion; details: cited from earlier work
[2] = test system: patients with acute anterior myocardial infarction; details: intravenous; cited from earlier work

## Hyaluronidase
Cardiac lymphatics; controls 1.64 ± 0.11, P <0.001 in relation to control
  No of lymphatics per cm^2: 3.45 ± 0.18 per cm^2
Cardiac lymphatics; controls 6.6%, P <0.001
  Equivalence to ventricular surface: 13.8%
[1]
  ST segment elevation: reduction
  infarct size (histological planimetric measurements): decrease
  myocardial CK (creatinine-Kinase): diminution
  number of lymphatic vessels in the area of infarction: increase
[2]
  EKG signs of necrosis: attenuate
